Positions of bridges follow the written chain, without caps; N, C: chain ends. Non-standard residues stand in square brackets, D forms with d. Residues, ends and D or L forms follow the SMILES beside them. Tyr(3-Cl) = N[C@@H](Cc1ccc(O)c(Cl)c1)C(=O)O

This assay concerns the target T1, HTRA1^FL (Homo sapiens, UniProt Q92743).
T1 construct: Human full-length HTRA1 (HTRA1^FL, Q23-P480); made in house; host or cells: Trichoplusia ni cells
As to the kind of experiment: HTRA1^FL enzyme inhibition assay with synthetic substrate H2-OPT. Type of assay: biochemical. As to the method: Assays with the fluorescence-quenched synthetic substrate Mca-IRRVSYSFK(Dnp)K (H2-OPT)[38],[60] were carried out essentially as described. CKP stock solutions in DMSO were diluted in TNC buffer (dilution series for IC50 determinations, or final concentration of 2 µM for selectivity assay or as indicated for HTRA1/4 mutants) and incubated with enzymes in 96-well black optical bottom plates for 60 min at 37 °C. For selectivity experiments we used the 7mer-ABP as inhibitor, which was incubated with the proteases for 15 min at 37 °C. A 10 mM stock solution of H2-OPT in DMSO was diluted with water, prewarmed at 37 °C and then added to the CKP-enzyme mixtures. The final concentrations in the reaction mixtures were: 1 nM HTRA1^FL, 3 nM HTRA1^PD/PDZ, 1 nM HTRA1^PD, 1 nM HTRA2^PD/PDZ, 3 nM HTRA3^FL, 60 nM HTRA3^PD/PDZ, 6 nM HTRA4^FL, 1 µM HTRA4^PD/PDZ, 1 nM mouse HTRA1^PD, 25 nM HTRA1^PD-A202Y, 1 µM HTRA4^PD/PDZ-Y200A, 0.5 mM 7mer-ABP, 5 µM H2-OPT, and 0.25% DMSO. The kinetics of substrate cleavage was measured at 37 °C on a SpectraMax M5 microplate reader with excitation of 328 nm and emission of 393 nm. The determined initial rates of cleavage were expressed as percent of control (DMSO control) after subtracting the baseline rates (without enzyme). IC50 values were determined by Sigmoidal 4PL modeling of multiple data points from serial dilutions of CKPs using Prism 9 software (GraphPad). For selectivity assays with HTRA1-4^PD/PDZ constructs, the specific activities of the enzymes and enzyme:CKP inhibitor ratios were as follows: HTRA1^PD/PDZ, 12560 mRFU/min/nM – 1:667; HTRA2^PD/PDZ, 32300 mRFU/min/nM – 1:2000; HTRA3^PD/PDZ, 962 mRFU/min/nM – 1:33; HTRA4^PD/PDZ, 18 mRFU/min/nM – 1:2.

T1 sequence (Q92743 23-480): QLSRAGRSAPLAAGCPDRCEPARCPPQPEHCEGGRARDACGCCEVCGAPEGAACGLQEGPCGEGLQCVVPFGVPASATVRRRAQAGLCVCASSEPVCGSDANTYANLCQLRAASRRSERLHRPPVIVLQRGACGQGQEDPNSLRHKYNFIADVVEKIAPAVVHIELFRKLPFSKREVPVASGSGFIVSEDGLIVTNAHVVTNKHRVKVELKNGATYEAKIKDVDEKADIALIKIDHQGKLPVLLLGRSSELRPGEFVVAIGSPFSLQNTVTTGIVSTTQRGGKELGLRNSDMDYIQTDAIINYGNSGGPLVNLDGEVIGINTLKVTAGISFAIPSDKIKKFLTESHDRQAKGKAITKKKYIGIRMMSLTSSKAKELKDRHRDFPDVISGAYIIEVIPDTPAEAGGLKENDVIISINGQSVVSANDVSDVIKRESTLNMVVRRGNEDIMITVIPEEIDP

In general, IC50 refers to the concentration that inhibits the measured activity by half. Read a low IC50 as inhibition by little substance. As to `CC[C@H](C)[C@H](NC(=O)[C@H](CCC(N)=O)NC(=O)[C@H](CCCNC(=N)N)NC(=O)[C@H](CC(C)C)NC(=O)CNC(=O)[C@H](Cc1c[nH]c2ccccc12)NC(=O)CNC(=O)[C@@H]1CSSC[C@@H]2NC(=O)[C@H](CC(=O)O)NC(=O)[C@H](CC(=O)O)NC(=O)[C@H](Cc3c[nH]cn3)NC(=O)[C@H]([C@@H](C)O)NC(=O)[C@H](CCC(=O)O)NC(=O)[C@@H]3CSSC[C@H](NC(=O)[C@H]([C@@H](C)O)NC(=O)[C@H](CCC(N)=O)NC(=O)[C@H](CSSC[C@H](NC(=O)[C@@H](NC(=O)[C@@H]4CCCN4C(=O)[C@H](CC(=O)O)NC(=O)[C@H](C)NC(=O)[C@@H](N)Cc4c[nH]cn4)[C@@H](C)CC)C(=O)N[C@@H](CC(N)=O)C(=O)N[C@@H](CCCCN)C(=O)N4CCC[C@H]4C(=O)N3)NC(=O)[C@H](Cc3ccccc3)NC(=O)[C@H](Cc3c[nH]c4ccccc34)NC(=O)[C@H](C)NC(=O)CNC(=O)[C@H](CO)NC2=O)C(=O)N[C@@H](Cc2ccc(O)cc2)C(=O)N[C@@H](Cc2ccc(O)cc2)C(=O)N[C@@H](C)C(=O)N[C@@H]([C@@H](C)O)C(=O)N[C@@H](Cc2c[nH]c3ccccc23)C(=O)N[C@@H](CO)C(=O)N1)C(=O)N[C@@H](CC(=O)O)C(N)=O` [1A8.K11E] (H-HADPICNKPCETHDDCSGAWFCQTCYYATWSCGWGLRQID-NH2; disulfide 6-22, 10-25, 16-32), the IC50 was determined as 1 ± 0.3 nM.

Molecule `CC[C@H](C)[C@H](NC(=O)[C@H](CCC(N)=O)NC(=O)[C@H](CCCNC(=N)N)NC(=O)[C@H](CC(C)C)NC(=O)CNC(=O)[C@H](Cc1c[nH]c2ccccc12)NC(=O)CNC(=O)[C@@H]1CSSC[C@@H]2NC(=O)[C@H](CC(=O)O)NC(=O)[C@H](CC(=O)O)NC(=O)[C@H](Cc3c[nH]cn3)NC(=O)[C@H]([C@@H](C)O)NC(=O)[C@H](CCCCN)NC(=O)[C@@H]3CSSC[C@H](NC(=O)[C@H]([C@@H](C)O)NC(=O)[C@H](CCC(N)=O)NC(=O)[C@H](CSSC[C@H](NC(=O)[C@@H](NC(=O)[C@@H]4CCCN4C(=O)[C@H](CC(=O)O)NC(=O)[C@H](C)NC(=O)[C@@H](N)Cc4c[nH]cn4)[C@@H](C)CC)C(=O)N[C@@H](CC(N)=O)C(=O)N[C@@H](CCCCN)C(=O)N4CCC[C@H]4C(=O)N3)NC(=O)[C@H](Cc3ccccc3)NC(=O)[C@H](Cc3c[nH]c4ccccc34)NC(=O)[C@H](C)NC(=O)CNC(=O)[C@H](CO)NC2=O)C(=O)N[C@@H](Cc2ccc(O)cc2)C(=O)N[C@@H](CC(C)C)C(=O)N[C@@H](C)C(=O)N[C@@H]([C@@H](C)O)C(=O)N[C@@H](Cc2c[nH]c3ccccc23)C(=O)N[C@@H](CO)C(=O)N1)C(=O)N[C@@H](CC(=O)O)C(N)=O` [Y27L] (H-HADPICNKPCKTHDDCSGAWFCQTCYLATWSCGWGLRQID-NH2; disulfide 6-22, 10-25, 16-32) showed a half-inhibitory concentration (IC50) of 49.9 ± 3.8 nM.

The molecule `CC[C@H](C)[C@H](NC(=O)[C@H](CCC(N)=O)NC(=O)[C@H](CCCNC(=N)N)NC(=O)[C@H](CC(C)C)NC(=O)CNC(=O)[C@H](Cc1c[nH]c2ccccc12)NC(=O)CNC(=O)[C@@H]1CSSC[C@@H]2NC(=O)[C@H](CC(=O)O)NC(=O)[C@H](CC(=O)O)NC(=O)[C@H](Cc3c[nH]cn3)NC(=O)[C@H]([C@@H](C)O)NC(=O)[C@H](CCCCN)NC(=O)[C@@H]3CSSC[C@H](NC(=O)[C@H]([C@@H](C)O)NC(=O)[C@H](CCC(N)=O)NC(=O)[C@H](CSSC[C@H](NC(=O)[C@@H](NC(=O)[C@@H]4CCCN4C(=O)[C@H](CC(=O)O)NC(=O)[C@H](C)NC(=O)[C@@H](N)Cc4c[nH]cn4)[C@@H](C)CC)C(=O)NCC(=O)N[C@@H](CO)C(=O)N[C@@H](CCC(N)=O)C(=O)N3)NC(=O)[C@H](Cc3ccccc3)NC(=O)[C@H](Cc3c[nH]c4ccccc34)NC(=O)[C@H](C)NC(=O)CNC(=O)[C@H](CO)NC2=O)C(=O)N[C@@H](Cc2ccc(O)cc2)C(=O)N[C@@H](Cc2ccc(O)cc2)C(=O)N[C@@H](C)C(=O)N[C@@H]([C@@H](C)O)C(=O)N[C@@H](Cc2c[nH]c3ccccc23)C(=O)N[C@@H](CO)C(=O)N1)C(=O)N[C@@H](CC(=O)O)C(N)=O` [1A8.L1.1] (H-HADPICGSQCKTHDDCSGAWFCQTCYYATWSCGWGLRQID-NH2; disulfide 6-22, 10-25, 16-32) returned a half-maximal inhibitory concentration (IC50) of 2.3 ± 0.1 nM.

Regarding `CC[C@H](C)[C@H](NC(=O)[C@H](CCC(N)=O)NC(=O)[C@H](CCCNC(=N)N)NC(=O)[C@H](CC(C)C)NC(=O)CNC(=O)[C@H](Cc1c[nH]c2ccccc12)NC(=O)CNC(=O)[C@@H]1CSSC[C@@H]2NC(=O)[C@H](CC(=O)O)NC(=O)[C@H](CC(=O)O)NC(=O)[C@H](Cc3c[nH]cn3)NC(=O)[C@H]([C@@H](C)O)NC(=O)[C@H](CCCCN)NC(=O)[C@@H]3CSSC[C@H](NC(=O)[C@H]([C@@H](C)O)NC(=O)[C@H](CCC(N)=O)NC(=O)[C@H](CSSC[C@H](NC(=O)[C@@H](NC(=O)[C@@H]4CCCN4C(=O)[C@H](CC(=O)O)NC(=O)[C@H](C)NC(=O)[C@@H](N)Cc4c[nH]cn4)[C@@H](C)CC)C(=O)NCC(=O)N[C@@H](Cc4c[nH]cn4)C(=O)N[C@@H](CCC(N)=O)C(=O)N3)NC(=O)[C@H](Cc3ccccc3)NC(=O)[C@H](Cc3c[nH]c4ccccc34)NC(=O)[C@H](C)NC(=O)CNC(=O)[C@H](CO)NC2=O)C(=O)N[C@@H](Cc2ccc(O)cc2)C(=O)N[C@@H](Cc2ccc(O)cc2)C(=O)N[C@@H](C)C(=O)N[C@@H]([C@@H](C)O)C(=O)N[C@@H](Cc2c[nH]c3ccccc23)C(=O)N[C@@H](CO)C(=O)N1)C(=O)N[C@@H](CC(=O)O)C(N)=O` [1A8.L1.2] (H-HADPICGHQCKTHDDCSGAWFCQTCYYATWSCGWGLRQID-NH2; disulfide 6-22, 10-25, 16-32), the IC50 worked out at 3.2 ± 0.1 nM.

On to `CC[C@H](C)[C@H](NC(=O)[C@H](CCC(N)=O)NC(=O)[C@H](CCCNC(=N)N)NC(=O)[C@H](CC(C)C)NC(=O)CNC(=O)[C@H](Cc1c[nH]c2ccccc12)NC(=O)CNC(=O)[C@@H]1CSSC[C@@H]2NC(=O)[C@H](CC(=O)O)NC(=O)[C@H](CC(=O)O)NC(=O)[C@H](Cc3c[nH]cn3)NC(=O)[C@H]([C@@H](C)O)NC(=O)[C@H](CC(=O)O)NC(=O)[C@@H]3CSSC[C@H](NC(=O)[C@H]([C@@H](C)O)NC(=O)[C@H](CCC(N)=O)NC(=O)[C@H](CSSC[C@H](NC(=O)[C@@H](NC(=O)[C@@H]4CCCN4C(=O)[C@H](CC(=O)O)NC(=O)[C@H](C)NC(=O)[C@@H](N)Cc4c[nH]cn4)[C@@H](C)CC)C(=O)N[C@@H](CC(N)=O)C(=O)N[C@@H](CCCCN)C(=O)N4CCC[C@H]4C(=O)N3)NC(=O)[C@H](Cc3ccccc3)NC(=O)[C@H](Cc3c[nH]c4ccccc34)NC(=O)[C@H](C)NC(=O)CNC(=O)[C@H](CO)NC2=O)C(=O)N[C@@H](Cc2ccc(O)cc2)C(=O)N[C@@H](Cc2ccc(O)cc2)C(=O)N[C@@H](C)C(=O)N[C@@H]([C@@H](C)O)C(=O)N[C@@H](Cc2c[nH]c3ccccc23)C(=O)N[C@@H](CO)C(=O)N1)C(=O)N[C@@H](CC(=O)O)C(N)=O` [1A8.K11D] (H-HADPICNKPCDTHDDCSGAWFCQTCYYATWSCGWGLRQID-NH2; disulfide 6-22, 10-25, 16-32), for which 1.2 ± 0.4 nM corresponded to half-maximal inhibition (IC50).

Regarding `CC[C@H](C)[C@H](NC(=O)[C@H](CCC(N)=O)NC(=O)[C@H](CCCNC(=N)N)NC(=O)[C@H](CC(C)C)NC(=O)CNC(=O)[C@H](Cc1c[nH]c2ccccc12)NC(=O)CNC(=O)[C@@H]1CSSC[C@@H]2NC(=O)[C@H](CC(=O)O)NC(=O)[C@H](CC(=O)O)NC(=O)[C@H](Cc3c[nH]cn3)NC(=O)[C@H]([C@@H](C)O)NC(=O)[C@H](CCCCN)NC(=O)[C@@H]3CSSC[C@H](NC(=O)[C@H]([C@@H](C)O)NC(=O)[C@H](CCC(N)=O)NC(=O)[C@H](CSSC[C@H](NC(=O)[C@@H](NC(=O)[C@@H]4CCCN4C(=O)[C@H](CC(=O)O)NC(=O)[C@H](C)NC(=O)[C@@H](N)Cc4c[nH]cn4)[C@@H](C)CC)C(=O)N[C@@H](CC(N)=O)C(=O)N[C@@H](CCCCN)C(=O)N4CCC[C@H]4C(=O)N3)NC(=O)[C@H](Cc3ccccc3)NC(=O)[C@H](Cc3c[nH]c4ccccc34)NC(=O)[C@H](C)NC(=O)CNC(=O)[C@H](CO)NC2=O)C(=O)N[C@@H](Cc2ccc(O)c(Cl)c2)C(=O)N[C@@H](Cc2ccc(O)cc2)C(=O)N[C@@H](C)C(=O)N[C@@H]([C@@H](C)O)C(=O)N[C@@H](Cc2c[nH]c3ccccc23)C(=O)N[C@@H](CO)C(=O)N1)C(=O)N[C@@H](CC(=O)O)C(N)=O` [1A8.Y26Y(3Cl)] (H-HADPICNKPCKTHDDCSGAWFCQTC[Tyr(3-Cl)]YATWSCGWGLRQID-NH2; disulfide 6-22, 10-25, 16-32), it took 2.4 ± 0.3 nM to reach half-maximal inhibition (IC50).

For the origin of these results see article PMC11111691, “Cystine-knot peptide inhibitors of HTRA1 bind to a cryptic pocket within the active site region” (Nature Communications, 2024).
